In PubChem BioAssay (NCI):
Where “and” joins values, the source holds several entries; their conditions need not be identical. Identical values can stand only once.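 Grown in 96-well plates, cells were treated for 48 hours with each compound at five concentrations. Insufficient inhibition: endpoint recorded as highest concentration tested. Here, GI50 denotes the concentration required for 50% inhibition of growth. TGI: total growth inhibition.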

Columns and labels:
Assay in all cases: growth of human tumour cells (NCI), 48 h
[1] = tested on: K-562 leukemia
[2] = tested on: COLO 205 colon
[3] = tested on: MDA-MB-435
[4] = tested on: M14 melanoma
[5] = tested on: PC-3 prostate
[6] = tested on: NCI-H23 lung
[7] = tested on: HCT-15 colon
[8] = tested on: HS 578T breast
[9] = tested on: SK-OV-3 ovarian
[10] = tested on: CCRF-CEM leukemia

| Compound | GI50 [1] [µM] | TGI [1] | GI50 [2] | TGI [2] | GI50 [3] | TGI [3] | GI50 [4] | TGI [4] | GI50 [5] | TGI [5] [µM] | GI50 [6] | TGI [6] | GI50 [7] | TGI [7] [µM] | GI50 [8] | TGI [8] | GI50 [9] | TGI [9] | GI50 [10] | TGI [10] [µM] |
| --- | --- | --- | --- | --- | --- | --- | --- | --- | --- | --- | --- | --- | --- | --- | --- | --- | --- | --- | --- | --- |
| O=C(/C=C/c1ccc(C(F)(F)F)cc1)c1ccc(Nc2nc(NCCO)nc(Nc3ccc(Cl)cc3)n2)cc1 | 2.83 | > 100 µM | 4.8 µM | 17.3 µM | 3.46 µM | 12.8 µM | 3.5 µM | 13.4 µM | 2.99 µM | 15 | 10.7 µM | 26.2 µM | 2.08 µM | 5.92 | 2.82 µM | 15.6 µM | 13.4 µM | 34.3 µM | 2.75 µM | 8.24 |
| COc1cc(C2CC(c3ccc(Nc4ccnc5cc(Cl)ccc45)cc3)=NN2c2ccc(Cl)cc2)cc(OC)c1OC (stereo not given) | 0.857 | > 100 µM | 3.28 µM | 31.5 µM | 0.329 µM | 2.05 µM | 2.01 µM | 9.61 µM | 1.47 µM | > 100 | 8.82 µM | > 100 µM | 0.877 µM | > 100 | 2.18 µM | > 100 µM | 3.26 µM | > 100 µM | 2.5 µM | > 100 |
| Cc1cn(-c2cc(NC(=O)c3ccc(C)c(Nc4nccc(-c5cccnc5)n4)c3)cc(C(F)(F)F)c2)cn1 | 2.15 | > 10 µM and 1.03 µM | 1.58 µM and 1.23 µM | 7.11 µM and 5.52 µM | 1.79 µM and 1.57 µM | 4.65 µM and 4.76 µM | 1.66 µM and 1.45 µM | 5.91 µM and 4.87 µM | 3.19 µM and 3.23 µM | > 10 | 7.35 µM and 6.5 µM | > 10 µM and 30 µM | 3.18 µM and 4.6 µM | > 38.3 | 5.73 µM and 2.52 µM | > 10 µM and 6.8 µM | > 10 µM and 3.91 µM | > 10 µM and 11.3 µM | > 10 µM and 1.25 µM | > 32.3 |
| C=C(c1ccccc1)[C@@]1(O)CC[C@@H]1N(CC#N)Cc1ccccc1 | – | > 74.3 µM | – | 30.4 µM | – | 47.5 µM | – | 32.6 µM | – | 64.3 | – | 68 µM | – | 34.6 | – | 65 µM | – | > 100 µM | – | 62.5 |
| COc1cccc(/C=N/C(/N=C/c2cccc(OC)c2O)c2cccc(OC)c2O)c1O | – | > 100 µM | – | > 100 µM | – | > 100 µM | – | 48.2 µM | – | > 100 | – | > 100 µM | – | > 100 | – | 61.5 µM | – | 78.1 µM | – | > 100 |
| O=C(OC[C@H]1O[C@H](OC(=O)c2cc(O)c(O)c(OC(=O)c3cc(O)c(O)c(O)c3)c2)[C@H](OC(=O)c2cc(O)c(O)c(OC(=O)c3cc(O)c(O)c(O)c3)c2)[C@@H](OC(=O)c2cc(O)c(O)c(OC(=O)c3cc(O)c(O)c(O)c3)c2)[C@@H]1OC(=O)c1cc(O)c(O)c(OC(=O)c2cc(O)c(O)c(O)c2)c1)c1cc(O)c(O)c(OC(=O)c2cc(O)c(O)c(O)c2)c1 | 9.63 | > 25 µM | 8.17 µM | > 25 µM | 1.5 µM | 7.89 µM | 5.01 µM | > 25 µM | 2.33 µM | > 25 | 1.56 µM | > 25 µM | 6.2 µM | > 25 | 10.3 µM | > 25 µM | 2.25 µM | > 25 µM | 3.23 µM | > 25 |
| C=C1C(=O)O[C@H]2[C@H]1CC/C(Cn1cc(-c3ccccc3C(F)(F)F)nn1)=C\CC[C@@]1(C)O[C@@H]21 | 2.4 | 13.1 µM | 1.98 µM | 3.81 µM | 2.18 µM | 7.11 µM | 2.15 µM | 5.13 µM | 4.32 µM | 15.3 | 1.75 µM | 3.57 µM | 1.05 µM | 2.43 | 3.57 µM | 26.7 µM | 17.3 µM | 31.2 µM | 0.767 µM | 10.1 |
